Test results: US9562021B2, “Histone deacetylase inhibitors and compositions and methods of use thereof” (CHDI Foundation, Inc., priority 2013, dated 2017)

Columns and labels:
Type in all cases: biochemical
[1] = target: T1, human HDAC5 catalytic domain (Homo sapiens, UniProt Q9UQL6); experiment: Inhibition of HDAC5 catalytic domain, Boc-Lys(Tfa)-AMC substrate
T1 construct: amino acids 657-1123 with a C-terminal His tag; His (C); purchased BPS BioScience; host or cells: baculovirus expression system
T1 sequence (Q9UQL6 656-1122): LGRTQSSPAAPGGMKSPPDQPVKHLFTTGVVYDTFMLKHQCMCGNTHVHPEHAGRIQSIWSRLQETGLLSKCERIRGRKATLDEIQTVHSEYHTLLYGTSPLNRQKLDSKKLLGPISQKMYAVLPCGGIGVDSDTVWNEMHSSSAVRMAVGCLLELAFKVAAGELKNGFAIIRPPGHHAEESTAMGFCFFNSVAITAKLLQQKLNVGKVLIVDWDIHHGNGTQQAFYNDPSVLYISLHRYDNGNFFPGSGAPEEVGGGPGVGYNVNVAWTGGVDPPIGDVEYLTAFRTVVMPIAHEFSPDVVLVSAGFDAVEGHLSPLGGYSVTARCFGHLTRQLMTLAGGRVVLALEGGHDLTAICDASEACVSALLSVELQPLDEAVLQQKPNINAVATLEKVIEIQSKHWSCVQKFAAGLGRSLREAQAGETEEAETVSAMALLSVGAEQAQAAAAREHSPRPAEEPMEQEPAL

human HDAC7 = target: T2, human HDAC7 (Homo sapiens, UniProt Q8WUI4); experiment: Inhibition of HDAC7, Boc-Lys(Tfa)-AMC substrate
T2 construct: amino acids 518-end with a N-terminal Glutathione S-transferase (GST) tag; GST (N); purchased BPS BioScience; host or cells: baculovirus expression system
T2 sequence (Q8WUI4 518-952 limits assumed): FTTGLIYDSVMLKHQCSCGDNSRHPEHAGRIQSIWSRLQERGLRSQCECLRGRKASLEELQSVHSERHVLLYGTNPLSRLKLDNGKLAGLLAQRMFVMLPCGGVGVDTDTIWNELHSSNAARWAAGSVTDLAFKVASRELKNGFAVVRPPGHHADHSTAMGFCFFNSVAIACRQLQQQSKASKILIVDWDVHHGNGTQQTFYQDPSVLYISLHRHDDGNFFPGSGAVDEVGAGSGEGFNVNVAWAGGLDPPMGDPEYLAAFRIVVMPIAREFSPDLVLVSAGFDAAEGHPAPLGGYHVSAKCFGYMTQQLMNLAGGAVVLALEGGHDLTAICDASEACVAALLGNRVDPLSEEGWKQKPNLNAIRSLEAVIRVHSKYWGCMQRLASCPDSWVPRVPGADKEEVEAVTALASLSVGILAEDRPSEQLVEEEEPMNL

human HDAC9 = target: T3, human HDAC9 (Homo sapiens, UniProt Q9UKV0); experiment: Inhibition of HDAC9, Boc-Lys(Tfa)-AMC substrate
T3 construct: amino acids 604-1066 with a C-terminal His tag; His (C); purchased BPS BioScience; host or cells: baculovirus expression system
T3 sequence (Q9UKV0 604-1066 isoform Q9UKV0-5): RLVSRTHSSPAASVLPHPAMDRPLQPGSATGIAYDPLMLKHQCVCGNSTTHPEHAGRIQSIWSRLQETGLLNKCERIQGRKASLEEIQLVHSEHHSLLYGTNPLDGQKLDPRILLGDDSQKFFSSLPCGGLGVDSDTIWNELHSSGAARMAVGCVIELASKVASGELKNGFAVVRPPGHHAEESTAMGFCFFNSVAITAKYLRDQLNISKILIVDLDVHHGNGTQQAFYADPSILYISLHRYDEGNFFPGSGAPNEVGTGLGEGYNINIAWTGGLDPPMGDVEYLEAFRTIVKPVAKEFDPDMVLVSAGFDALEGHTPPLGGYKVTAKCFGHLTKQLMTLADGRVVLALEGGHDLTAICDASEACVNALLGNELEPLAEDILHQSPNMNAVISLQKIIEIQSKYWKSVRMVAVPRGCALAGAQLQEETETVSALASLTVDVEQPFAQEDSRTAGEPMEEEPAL

HDAC4 = HDAC4 (Homo sapiens, UniProt P56524); experiment: HDAC4 (bioch) IC50; conditions: Table 4, bioch; read-out: HDAC4
HDAC4, sequence (P56524 whole entry): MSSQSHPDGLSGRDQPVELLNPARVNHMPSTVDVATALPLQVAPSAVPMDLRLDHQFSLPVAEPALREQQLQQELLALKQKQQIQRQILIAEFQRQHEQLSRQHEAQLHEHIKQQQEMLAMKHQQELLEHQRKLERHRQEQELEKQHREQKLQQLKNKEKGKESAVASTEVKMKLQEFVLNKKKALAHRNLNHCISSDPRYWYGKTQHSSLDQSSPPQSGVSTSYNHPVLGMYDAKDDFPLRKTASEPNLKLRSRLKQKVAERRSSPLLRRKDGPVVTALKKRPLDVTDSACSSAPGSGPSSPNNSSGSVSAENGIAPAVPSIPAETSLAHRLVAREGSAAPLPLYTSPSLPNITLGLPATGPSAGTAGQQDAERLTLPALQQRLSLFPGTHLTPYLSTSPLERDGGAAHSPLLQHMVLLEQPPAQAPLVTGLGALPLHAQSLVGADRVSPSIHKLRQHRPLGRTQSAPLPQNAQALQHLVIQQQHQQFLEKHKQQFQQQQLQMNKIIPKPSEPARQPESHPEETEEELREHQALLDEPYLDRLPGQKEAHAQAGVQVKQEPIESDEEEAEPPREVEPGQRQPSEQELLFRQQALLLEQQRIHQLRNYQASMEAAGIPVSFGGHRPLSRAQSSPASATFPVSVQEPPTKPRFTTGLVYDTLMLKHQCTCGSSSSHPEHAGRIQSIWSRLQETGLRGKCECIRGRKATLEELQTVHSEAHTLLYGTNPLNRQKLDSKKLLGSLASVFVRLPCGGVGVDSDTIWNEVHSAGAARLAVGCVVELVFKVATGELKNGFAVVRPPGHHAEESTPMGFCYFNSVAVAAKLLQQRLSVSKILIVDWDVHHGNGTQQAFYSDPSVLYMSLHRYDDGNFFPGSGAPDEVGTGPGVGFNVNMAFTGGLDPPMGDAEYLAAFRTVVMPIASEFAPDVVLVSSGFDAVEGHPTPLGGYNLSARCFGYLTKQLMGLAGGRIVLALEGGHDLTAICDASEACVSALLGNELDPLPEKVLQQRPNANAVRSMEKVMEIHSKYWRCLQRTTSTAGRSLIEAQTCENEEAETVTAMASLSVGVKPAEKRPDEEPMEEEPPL

HDAC3 = HDAC3 (Homo sapiens, UniProt O15379); experiment: cat. HDAC3 IC50
HDAC3, sequence (O15379 whole entry): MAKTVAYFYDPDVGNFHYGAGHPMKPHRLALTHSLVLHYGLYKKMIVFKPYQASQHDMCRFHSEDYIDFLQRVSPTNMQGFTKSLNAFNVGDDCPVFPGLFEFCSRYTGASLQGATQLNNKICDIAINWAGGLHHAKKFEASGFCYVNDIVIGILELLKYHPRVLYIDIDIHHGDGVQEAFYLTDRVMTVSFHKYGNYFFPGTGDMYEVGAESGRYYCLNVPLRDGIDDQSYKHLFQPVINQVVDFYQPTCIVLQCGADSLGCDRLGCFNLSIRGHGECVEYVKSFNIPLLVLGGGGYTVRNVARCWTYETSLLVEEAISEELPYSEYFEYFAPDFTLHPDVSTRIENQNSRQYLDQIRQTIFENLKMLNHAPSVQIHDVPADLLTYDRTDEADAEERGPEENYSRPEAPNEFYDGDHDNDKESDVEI
HDAC3, sequence (Q9Y618 395-489 partner limits assumed): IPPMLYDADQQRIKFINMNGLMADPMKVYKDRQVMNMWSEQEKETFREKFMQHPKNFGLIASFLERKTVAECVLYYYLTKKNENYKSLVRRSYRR

HDAC8 = target: T4, HDAC8 (Homo sapiens, UniProt Q9BY41); experiment: cat. HDAC8 IC50
T4 sequence (Q9BY41 1-377): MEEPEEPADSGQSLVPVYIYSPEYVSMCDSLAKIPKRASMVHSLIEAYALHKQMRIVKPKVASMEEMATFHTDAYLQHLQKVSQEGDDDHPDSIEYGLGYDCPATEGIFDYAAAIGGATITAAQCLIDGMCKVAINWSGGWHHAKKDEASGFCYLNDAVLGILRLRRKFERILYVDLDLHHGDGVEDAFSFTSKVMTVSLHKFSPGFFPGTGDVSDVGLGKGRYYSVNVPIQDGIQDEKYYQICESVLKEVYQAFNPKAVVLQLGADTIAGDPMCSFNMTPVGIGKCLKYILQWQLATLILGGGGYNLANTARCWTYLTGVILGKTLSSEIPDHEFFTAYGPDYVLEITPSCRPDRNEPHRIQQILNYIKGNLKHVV

HDAC6 = target: T5, HDAC6 (Homo sapiens, UniProt Q9UBN7); experiment: cat. HDAC6 IC50
T5 sequence (Q9UBN7 1-1215): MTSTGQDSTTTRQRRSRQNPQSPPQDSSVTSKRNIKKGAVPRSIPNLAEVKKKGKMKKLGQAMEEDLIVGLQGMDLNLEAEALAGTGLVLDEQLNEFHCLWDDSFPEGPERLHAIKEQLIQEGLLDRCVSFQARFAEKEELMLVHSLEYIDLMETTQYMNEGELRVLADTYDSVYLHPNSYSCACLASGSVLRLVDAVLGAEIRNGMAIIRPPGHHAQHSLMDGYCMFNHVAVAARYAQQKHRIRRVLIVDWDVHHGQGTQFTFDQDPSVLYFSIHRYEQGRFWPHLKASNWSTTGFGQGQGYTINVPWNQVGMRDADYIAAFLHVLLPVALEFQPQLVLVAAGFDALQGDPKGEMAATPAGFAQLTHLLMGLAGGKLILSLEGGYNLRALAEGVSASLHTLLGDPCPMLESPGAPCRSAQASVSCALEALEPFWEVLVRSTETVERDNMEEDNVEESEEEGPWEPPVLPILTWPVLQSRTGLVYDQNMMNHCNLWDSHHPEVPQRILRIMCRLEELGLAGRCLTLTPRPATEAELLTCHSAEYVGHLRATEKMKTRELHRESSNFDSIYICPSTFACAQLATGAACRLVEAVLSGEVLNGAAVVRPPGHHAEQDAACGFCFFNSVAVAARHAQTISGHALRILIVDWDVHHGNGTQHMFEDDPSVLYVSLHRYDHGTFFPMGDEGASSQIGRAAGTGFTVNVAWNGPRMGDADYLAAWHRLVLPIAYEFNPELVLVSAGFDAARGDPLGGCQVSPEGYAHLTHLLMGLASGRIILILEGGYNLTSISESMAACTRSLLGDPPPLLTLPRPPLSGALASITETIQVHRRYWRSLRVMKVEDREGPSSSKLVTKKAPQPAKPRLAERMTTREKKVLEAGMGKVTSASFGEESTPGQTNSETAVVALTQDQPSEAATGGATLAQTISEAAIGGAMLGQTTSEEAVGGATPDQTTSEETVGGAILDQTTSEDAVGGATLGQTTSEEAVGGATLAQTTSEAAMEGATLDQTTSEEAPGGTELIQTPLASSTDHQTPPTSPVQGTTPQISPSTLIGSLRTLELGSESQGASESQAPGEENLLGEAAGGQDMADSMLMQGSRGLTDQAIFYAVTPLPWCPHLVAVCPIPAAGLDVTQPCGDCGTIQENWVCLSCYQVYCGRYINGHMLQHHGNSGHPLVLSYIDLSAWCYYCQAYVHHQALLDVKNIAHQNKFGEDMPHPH

O=C(NO)C(c1ccccc1)c1ccc(-c2cncnc2)cc1 (stereo not shown) [drawing 21]
Fold Selectivity (bioch) HDAC5:HDAC4 [1]: 0.3
Fold Selectivity (bioch) HDAC7:HDAC4 (human HDAC7): 0.8
Fold Selectivity (bioch) HDAC9:HDAC4 (human HDAC9): 1
IC50 (HDAC4): 0.09 µM
Fold Selectivity (bioch) HDAC3:HDAC4 (HDAC3): 320
Fold Selectivity (bioch) HDAC8:HDAC4 (HDAC8): 60
Fold Selectivity (bioch) HDAC6:HDAC4 (HDAC6): 50
